# “And” between values parts separate entries of the source, which are not always exact repeats. Equal values may be shown once.
# Assay: Spontaneous conversion (decarboxylation) of synthetic 2-OH-PCA to 2-OH-PHZ in phosphate buffer, RP-HPLC
# Format: physicochemical
# Procedure: Since phenazine-producing Pseudomonas spp. often produce mixtures of phenazine compounds, a generalized HPLC protocol for detection of these metabolites was developed. The protocol utilized a NOVA-PAK C18 reverse-phase Radial-PAK cartridge (4 μm, 8×100 mm) (Waters Corp., Milford, Mass.), and solvent conditions consisting of a 2-min initial wash with 35% ACN/0.1% TFA in H2O followed by a 25-min linear gradient to 100% ACN/0.1% TFA at a flow rate of 1.0 ml/min. The Waters HPLC system included a 710B WISP, 510 pumps, and a 680 automated gradient controller with a 990 photodiode array detector (Waters Corp.). Phenazine compounds were identified by retention time and ultraviolet spectrum. Standards included compounds purified from well-characterized strains (Mavrodi et al, 1998, supra; Pierson and Thomashow, 1992, supra) and chemically-synthesized compounds (PCA, 2-OH-PCA, and 2-OH-PHZ) obtained from Colour Your Enzyme (Bath, Ontario, Canada). […] 2-OHPHZ, which is formed by spontaneous decarboxylation of 2-OH-PCA (see below), was therefore used as an indicator of 2-hydroxyphenazine synthesis and when necessary, the presence of 2-OH-PCA in samples containing PCA was determined by peak purity and spectral analyses using the Waters 991 photodiode array (Waters Corp.).
# Expression and Functional Analysis of PhzO. The phzO gene from P. aureofaciens 30-84 was cloned in pUCP26 under the control of the lac promoter and expressed in E. coli JM109. Cells from induced cultures expressing PhzO produced a unique band of approximately 55 kDa on SDS-PAGE gels, in good agreement with the size predicted by nucleotide sequence analysis. Induced cultures of E. coli expressing PhzO converted PCA (0.3 or 0.5 mg/ml in 5% NaHCO3) to 2-OH-PCA and 2-OH-PHZ within 3 h, whereas no such conversion occurred in control cultures harboring only pUCP26 (FIG. 2). […] To determine whether PhzO is responsible for this reaction in P. aureofaciens 30-84, a tetracycline resistance gene was inserted into phzO and introduced in the genome by homologous recombination. […]
smiles,measurement,setting,value
"O=C(O)c1c(O)ccc2nc3ccccc3nc12 [2-OH-PCA, 2-hydroxyphenazine-1-carboxylic acid]",2-OH-PHZ as share of the total phenazine present,"0.1 M sodium phosphate buffer pH 4.0, 18 h",0.2%
same,2-OH-PCA initially present converted to 2-OH-PHZ,"0.1 M sodium phosphate buffer pH 6.0, 18 h",33% and 33.3%
same,2-OH-PCA initially present converted to 2-OH-PHZ,"0.1 M sodium phosphate buffer pH 8.0, 18 h",62% and 64%
